How the values were obtained:
Assay in all cases: two-electrode voltage clamp, Xenopus oocytes
Dm-DopC1 [1] = tested on: T1, Dm-DopC1; assay type: cell-based, Daphnia magna; details: antagonist against 50 µM dopamine; ND96 pH 7.5, -60 mV; 4-parameter fit, bottom = 0
T1 construct: full-length homomeric pentamer expressed from cRNA in Xenopus laevis oocytes; predicted signal peptide residues 1-26

Dm-DopC1 [2] = biological target: T2, Dm-DopC1 (Daphnia magna, UniProt Z9WC39ES65, N92T); assay type: cell-based
T2 construct: full-length homomeric pentamer expressed from cRNA in Xenopus laevis oocytes; predicted signal peptide residues 1-26
T2 sequence (Z9WC39ES65 27-520 N92T limits assumed): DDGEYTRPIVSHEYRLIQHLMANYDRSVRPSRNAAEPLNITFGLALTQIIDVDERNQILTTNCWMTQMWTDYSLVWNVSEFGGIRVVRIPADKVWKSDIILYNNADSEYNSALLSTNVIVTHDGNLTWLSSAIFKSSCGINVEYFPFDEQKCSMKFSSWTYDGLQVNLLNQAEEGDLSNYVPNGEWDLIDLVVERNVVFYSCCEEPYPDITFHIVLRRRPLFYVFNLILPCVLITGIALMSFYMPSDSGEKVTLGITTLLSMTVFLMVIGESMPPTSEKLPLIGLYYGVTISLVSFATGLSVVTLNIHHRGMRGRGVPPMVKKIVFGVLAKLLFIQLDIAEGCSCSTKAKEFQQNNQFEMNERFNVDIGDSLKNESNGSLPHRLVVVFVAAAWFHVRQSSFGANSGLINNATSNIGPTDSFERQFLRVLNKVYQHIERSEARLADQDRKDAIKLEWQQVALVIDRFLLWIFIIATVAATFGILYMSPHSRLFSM
Description: two-electrode voltage clamp, Xenopus oocytes on Dm-DopC1

Dm-DopC1 [3] = biological target: T3, Dm-DopC1 (Daphnia magna, UniProt Z9WC39ES65, D188N); assay type: cell-based
T3 construct: full-length homomeric pentamer expressed from cRNA in Xenopus laevis oocytes; predicted signal peptide residues 1-26
T3 sequence (Z9WC39ES65 27-520 D188N limits assumed): as the sequence (Z9WC39ES65 27-520 N92T limits assumed) above, with T66N, D162N counted along it

Compound: COc1cc2c3cc1Oc1cc(ccc1O)C[C@@H]1c4c(cc(OC)c(O)c4Oc4ccc(cc4)C[C@@H]3N(C)CC2)CC[N+]1(C)C [tubocurarine]
- IC50 (Dm-DopC1 [1]): 0.9 µM

Compound: CN1CCC[C@H]1c1cccnc1 [nicotine]
- IC50 (Dm-DopC1 [1]): 109 µM

Compound: CN1CCc2cccc3c2[C@H]1Cc1ccc(O)c(O)c1-3 [apomorphine]
- IC50 (Dm-DopC1 [1]): 6 µM

Compound: NC[C@H](O)c1ccc(O)c(O)c1 [norepinephrine]
- EC50 (Dm-DopC1 [2]): 440 ± 114 µM

Compound: NCCc1ccc(O)c(O)c1 [dopamine]
- EC50 (Dm-DopC1 [3]): > 9000 µM
